Results on four compounds are retold here after patent US20160199371A1, “PHARMACEUTICAL COMPOSITION HAVING PYRIMIDINE COMPOUND AS ACTIVE INGREDIENT” (ASTELLAS PHARMA INC, priority 2013, published 2016).

One experiment concerns the target T1, human recombinant FGFR4 (Homo sapiens, UniProt P22455).
T1 construct: purchased CARNA BIOSCIENCES; Inc. 08CBS-0716C
Description: FGFR4 enzyme assay. In kind it is biochemical. Conditions: test compound 10 nM; read-out: FGFR4 Kinase Activity Inhibitory Rate. As to the method:
The outline of the measurement method is shown below.
Into a well of a 384-well plate,
(1) 4 μL of a compound solution was added,
(2) 2 μL of an FGFR4 enzyme (3 ng/μL) diluted with a reaction buffer was added,
(4) the mixture was allowed to undergo a reaction at room temperature for 30 minutes (concentration of the test compound species during assay of 10 nM).
(5) 15 μL/well of a 20 mM EDTA solution was added thereto to stop the reaction, and then in a LabChip EZ Reader (Perkin Elmer), the amount of a phosphorylated substrate peptide produced by the kinase reaction of FGFR4 was measured.

The test system of the next experiment is HuH-7 cell. Description: Growth assay of FGF19 gene amplification-positive liver cancer cell (HuH-7). The note with it: Homo sapiens, Huh-7, 120 h; test compound 37 nM, 5 days; read-out: HuH-7 Cell Growth Inhibitory Rate. Type of experiment: cell-based. As to the method:
After 5 days from the addition of the test compound solution, the number of HuH-7 cells were measured with ARVO×3 (Perkin Elmer) using a CellTiter-Glo Luminescent Cell Viability Assay (Promega). […] That is, the inhibitory rate was calculated by <the growth inhibitory rate (%)>=<1−(the measured value of the well to which the test compound was added>−<the measured value of the well to which the cells were not added (only medium present)>)/{<the measured value of the well to which the test compound was not added (only DMSO was added)>−<the measured value of the well to which the cells were not added (only medium present)}]×100.

The test system of experiment [1] is FGF19 gene amplification-positive liver cancer cell (HuH-7). Kind of experiment: Antitumor test using mouse model subcutaneously transplanted with HuH-7 cells. The note with it: 1 mg/kg/day oral once daily. Type of experiment: in vivo, nude mice. The protocol: HuH-7 cells at 3×10^6 cells/0.1 mL (solution suspended in PBS and Matrigel at 1:1) was subcutaneously transplanted to nude mice (CanN.Cg-Foxn1 nu/CrlCrlj(nu/nu): Charles River Laboratories Japan, Inc., male, 4-5 week old). After about 3 weeks after the transplantation, the mice were grouped according to the tumor volumes and body weights. […] The test compound was made into a suspension using a 0.5% aqueous methyl cellulose solution and orally administered once a day daily. […] For the tumor volume, a short diameter and long diameter were measured using a calipers, and the tumor volume was calculated by (tumor volume mm^3)=(short diameter mm×short diameter mm×long diameter mm)/2. […] The tumor growth inhibitory rate of test compound was calculated by <the tumor growth inhibitory rate (%)>=<1−(increase in the tumor volume of the test compound-administered group/increase in the tumor volumes of the control group)>×100. The increase in the tumor volume was calculated by (increase in the tumor volume)=(the tumor volume on the final day of each group)−(the tumor volume on the 0th day of each group).

Experiment [2] concerns surgically unresectable liver cancer. The note with it: extension from 7.9 months; N Engl J Med. 2008; cited from earlier work.

T1 sequence (P22455 22-802): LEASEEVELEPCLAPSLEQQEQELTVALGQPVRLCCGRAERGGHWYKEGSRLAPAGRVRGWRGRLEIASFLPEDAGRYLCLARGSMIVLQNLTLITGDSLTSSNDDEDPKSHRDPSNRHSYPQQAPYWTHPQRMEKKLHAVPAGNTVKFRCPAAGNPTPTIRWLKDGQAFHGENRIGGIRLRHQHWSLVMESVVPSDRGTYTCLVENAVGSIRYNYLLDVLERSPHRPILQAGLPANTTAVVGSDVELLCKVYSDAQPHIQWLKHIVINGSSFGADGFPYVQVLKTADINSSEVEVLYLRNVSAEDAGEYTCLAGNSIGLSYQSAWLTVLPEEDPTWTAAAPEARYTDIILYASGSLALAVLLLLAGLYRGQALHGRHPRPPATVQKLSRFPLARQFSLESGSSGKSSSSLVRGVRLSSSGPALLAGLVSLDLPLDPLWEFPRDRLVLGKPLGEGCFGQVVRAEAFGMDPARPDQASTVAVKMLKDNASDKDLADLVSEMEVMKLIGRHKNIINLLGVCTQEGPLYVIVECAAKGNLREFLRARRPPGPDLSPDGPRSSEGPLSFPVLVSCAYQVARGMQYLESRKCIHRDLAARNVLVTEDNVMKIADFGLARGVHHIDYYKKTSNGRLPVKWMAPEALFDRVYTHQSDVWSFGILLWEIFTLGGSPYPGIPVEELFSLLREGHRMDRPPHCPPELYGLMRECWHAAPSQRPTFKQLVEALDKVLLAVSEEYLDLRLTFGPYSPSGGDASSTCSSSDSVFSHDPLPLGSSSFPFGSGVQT

Regarding `COc1cc(Nc2ncc(OCc3c(F)c(OC)cc(OC)c3F)cn2)ccc1N1CCC(N2CCN(C)CC2)CC1` [Compound A, 5-[(2,6-difluoro-3,5-dimethoxybenzyl)oxy]-N-{3-methoxy-4-[4-(4-methylpiperazin-1-yl)piperidin-1-yl]phenyl}pyrimidin-2-amine], the inhibition at 0.01 µM at human recombinant FGFR4 was 78%. Also, the inhibition at 0.037 µM with HuH-7 cell amounted to 53%. The “Tumor growth inhibitory rate” value in experiment [1] (final day 10th day) is given as 80%.
The corresponding values for `COc1cc(OC)c(F)c(COc2cnc(Nc3ccc(N4CCN(C)CC4)cc3)nc2)c1F` [Compound D, 5-[(2,6-difluoro-3,5-dimethoxybenzyl)oxy]-N-[4-(4-methylpiperazin-1-yl)phenyl]pyrimidin-2-amine] are 82%, 65% and 67%.
For the compound `COc1cc(OC)c(F)c(COc2cnc(Nc3cc(CN4CCN(C)CC4)n(C)n3)nc2)c1F` [Compound E, 5-[(2,6-difluoro-3,5-dimethoxybenzyl)oxy]-N-{1-methyl-5-[(4-methylpiperazin-1-yl)methyl]-1H-pyrazol-3-yl}pyrimidin-2-amine], the inhibition at 0.01 µM at human recombinant FGFR4 is 31%. The inhibition at 0.037 µM in the experiment on HuH-7 cell was 11%. Also, in experiment [1] (final day 9th day), the “Tumor growth inhibitory rate” value is given as 44%.
For the compound `CNC(=O)c1cc(Oc2ccc(NC(=O)Nc3ccc(Cl)c(C(F)(F)F)c3)cc2)ccn1` [sorafenib], in experiment [2], the survival is on record as 10.7 months.
